These results are taken from US11851419B2, “GLP-1R modulating compounds” (Gilead Sciences, Inc., priority 2020, dated 2023).

The target of assay [1] is T1, GLP-1R (Homo sapiens, UniProt P43220). The experiment in a line: GLP-1R Activation - cAMP Assay 1 (cAMP increase in CHO cells stably expressing GLP-1R). Conditions: 10 point dose response, 30 minutes incubation at 37° C., cAMP Gs Dynamic Kit. It counts as cell-based. How it is done:
GLP-1R Activation—cAMP Assay 1
GLP-1R activation by a compound of the present disclosure was quantified by measuring cAMP increase in CHO cells stably expressing GLP-1R (MultiSpan product #C1267-1a). The cells were harvested and plated in growth medium (DMEM/F-12 (Corning product #10-090-CV) supplemented with 10% FBS (HyClone product #SH30071-03), penicillin/streptomycin (Corning product #30-002CI) and 10 µg/ml puromycin (Gibco product #A11138-03)) at 1,000 cells/well in a 384-well plate (Greiner product #781080). The cells were then incubated overnight at 37° C., 5% CO2. The next day, the medium was removed and the cells were washed with DPBS (Corning product #21-031-CM) before adding the assay medium (HBSS, Corning product #21-023-CV) with 20 mM Hepes (Gibco product #15630-080) and 0. 1% BSA (Rockland Immunochemicals product #BSA-1000)). Following the medium change, the cells were incubated for 1 hour at 37° C., 5% CO2. The tested GLP-1 compound was added to the cells in a 10 point dose response followed by a 30 minutes incubation at 37° C., 5% CO2. cAMP concentration increase was then detected using Cisbio's cAMP Gs Dynamic Kit (product #62AM4PEC) according to the manufacturer's protocol. The response was plotted against the log of the agonist concentration and fitted to a sigmoidal equation to determine the EC50.

Assay [2] addresses T1, GLP-1R. The experiment in a line: GLP-1R Activation - cAMP Assay 2 (cAMP increase in CHO cells stably expressing GLP-1R, pre-spotted agonists). It counts as cell-based. The following applies: assay buffer or 100% Human Plasma (not given), 30 minutes at 37° C. The procedure: GLP-1R Activation—cAMP Assay 2
GLP-1R activation by small molecule agonists is quantified by measuring cAMP increase in CHO cells stably expressing GLP-1R (MultiSpan product #C1267-1a). 50 nL of agonists are pre-spotted in a 10 point dose response onto 384-well plate (Corning product #CL3826) using the Labcyte Echo System. The cells are harvested and plated in assay buffer (HBSS (Corning product #21-023-CV) with 20 mM Hepes (Gibco product #15630-080) and 0.1% BSA (Rockland Immunochemicals product #BSA-1000)) or 100% Human Plasma (Innovative Research product #50-643-396) at 1,000 cells/well, 10 µL/well, onto the pre-spotted plates. The cells are then incubated for 30 minutes at 37° C., 5% CO2. cAMP concentration increase is then detected using Cisbio's cAMP Gs Dynamic Kit (product #62AM4PEC) according to the manufacturer's protocol. The response is plotted against the log of the agonist concentration and fitted to a sigmoidal equation to determine the EC50.

T1 sequence (P43220 24-463): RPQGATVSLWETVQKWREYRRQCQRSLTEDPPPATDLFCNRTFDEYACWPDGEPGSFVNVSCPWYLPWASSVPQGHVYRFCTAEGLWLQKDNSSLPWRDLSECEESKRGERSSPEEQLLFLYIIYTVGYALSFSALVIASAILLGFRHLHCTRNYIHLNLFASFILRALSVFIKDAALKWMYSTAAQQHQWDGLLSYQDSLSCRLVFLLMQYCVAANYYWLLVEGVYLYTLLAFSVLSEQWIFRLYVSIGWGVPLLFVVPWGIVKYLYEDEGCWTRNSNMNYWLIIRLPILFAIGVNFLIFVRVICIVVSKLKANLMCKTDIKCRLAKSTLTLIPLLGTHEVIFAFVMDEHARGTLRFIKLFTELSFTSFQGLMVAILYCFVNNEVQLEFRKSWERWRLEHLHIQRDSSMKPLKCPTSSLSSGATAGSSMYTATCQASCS

As a reminder, the EC50 is the concentration that produces a half-maximal response. A high value points to weaker potency. In the case of `COCCn1c(CN2CCC(c3cccc(OCc4ccc(C#N)cc4F)n3)CC2)nc2c(C3CC3)cc(C(=O)O)cc21` [Example 26, 2-((4-(6-((4-cyano-2-fluorobenzyl)oxy)pyridin-2-yl)piperidin-1-yl)methyl)-4-cyclopropyl-1-(2-methoxyethyl)-1H-benzo[d]imidazole-6-carboxylic Acid], the figures for the EC50 at GLP-1R [1] and at GLP-1R [2] were 53.9 nM and 47.8 nM, respectively. The matching figures for `COCCn1c(CC2CCN(c3cccc(OCc4ccc(C#N)cc4F)n3)CC2)nc2c(F)cc(C(=O)O)cc21` [Example 8]: 5.3 nM and 13.2 nM. On the same counts, the results for `COCCn1c(C2CC23CCN(c2cccc(OCc4ccc(C#N)cc4F)n2)CC3)nc2c(F)cc(C(=O)O)cc21` (stereo not shown) [Example 7, 2-[6-[6-[(4-cyano-2-fluoro-phenyl)methoxy]-2-pyridyl]-6-azaspiro[2.5]octan-2-yl]-7-fluoro-3-(2-methoxyethyl)benzimidazole-5-carboxylic Acid] are 3.8 nM and 10.3 nM.

As for `COCCn1c(CN2CCC(c3cccc(OCc4ccc(C#N)cc4F)n3)CC2)nc2c(C#N)cc(C(=O)O)cc21` [Example 25, 4-cyano-2-((4-(6-((4-cyano-2-fluorobenzyl)oxy)pyridin-2-yl)piperidin-1-yl)methyl)-1-(2-methoxyethyl)-1H-benzo[d]imidazole-6-carboxylic Acid], the values for the EC50 on GLP-1R [1] and on GLP-1R [2] were 3.5 nM and 7.1 nM, respectively. The matching figures for `COCCn1c(CN2CCC(c3cccc(OCc4ccc(C#N)cc4F)n3)CC2)nc2c(F)c(F)c(C(=O)O)cc21` [Example 10, 2-((4-(6-((4-cyano-2-fluorobenzyl)oxy)pyridin-2-yl)piperidin-1-yl)methyl)-4,5-difluoro-1-(2-methoxyethyl)-1H-benzo[d]imidazole-6-carboxylic Acid]: 18.2 nM and 11.3 nM. On GLP-1R [1], `CC(C)(C#N)Cn1c(CN2CCC(c3cccc(OCc4ccc(C#N)cc4F)n3)CC2)nc2c(F)cc(C(=O)O)cc21` [Example 15] had an EC50 of 0.24 nM.

Regarding `COCCn1c(CN2CCC(c3cccc(OCc4ccc(C#N)cc4F)n3)CC2)nc2c(F)cc(C(=O)O)cc21` [Example 14, 2-[[4-[6-[(4-cyano-2-fluoro-phenyl)methoxy]-2-pyridyl]-1-piperidyl]methyl]-7-fluoro-3-(2-methoxyethyl)benzimidazole-5-carboxylic Acid], on GLP-1R [1], the midpoint of the response, the EC50, lay at 1.04 nM. Take `COCCn1c(CN2CCC(c3cccc(OCc4ccc(C#N)cc4F)n3)CC2)nc2c(-c3cnn(C)c3)cc(C(=O)O)cc21` [Example 29, 2-((4-(6-((4-cyano-2-fluorobenzyl)oxy)pyridin-2-yl)piperidin-1-yl)methyl)-1-(2-methoxyethyl)-4-(1-methyl-1H-pyrazol-4-yl)-1H-benzo[d]imidazole-6-carboxylic Acid]: at GLP-1R [1], a half-maximal response (EC50) required 104 nM. `COCCn1c(CN2CCC(c3cccc(OCc4ccc(C#N)cc4F)n3)CC2)nc2c(C)cc(C(=O)O)cc21` [Example 28, 2-((4-(6-((4-cyano-2-fluorobenzyl)oxy)pyridin-2-yl)piperidin-1-yl)methyl)-1-(2-methoxyethyl)-4-methyl-1H-benzo[d]imidazole-6-carboxylic Acid] came in with a half-maximal effective concentration (EC50) on GLP-1R [1] of 21 nM. In the case of `COCCn1c(CN2CCC(c3cccc(OCc4ccc(C#N)cc4F)n3)CC2)nc2c(Cl)cc(C(=O)O)cc21` [Example 9], the EC50 at GLP-1R [1] was found to be 6.6 nM; at GLP-1R [2], 2.6 nM.
